This passage reports IC50 results from patent US9056832B2, “Pyridine compounds and the users thereof” (Purdue Pharma L.P., priority 2010, dated 2015).

SMILES strings stand for the structures. Bounds are passed on as bounds.

Chain of human Nav1.7 (Q15858 other isoform, or with tags, fused parts or gaps): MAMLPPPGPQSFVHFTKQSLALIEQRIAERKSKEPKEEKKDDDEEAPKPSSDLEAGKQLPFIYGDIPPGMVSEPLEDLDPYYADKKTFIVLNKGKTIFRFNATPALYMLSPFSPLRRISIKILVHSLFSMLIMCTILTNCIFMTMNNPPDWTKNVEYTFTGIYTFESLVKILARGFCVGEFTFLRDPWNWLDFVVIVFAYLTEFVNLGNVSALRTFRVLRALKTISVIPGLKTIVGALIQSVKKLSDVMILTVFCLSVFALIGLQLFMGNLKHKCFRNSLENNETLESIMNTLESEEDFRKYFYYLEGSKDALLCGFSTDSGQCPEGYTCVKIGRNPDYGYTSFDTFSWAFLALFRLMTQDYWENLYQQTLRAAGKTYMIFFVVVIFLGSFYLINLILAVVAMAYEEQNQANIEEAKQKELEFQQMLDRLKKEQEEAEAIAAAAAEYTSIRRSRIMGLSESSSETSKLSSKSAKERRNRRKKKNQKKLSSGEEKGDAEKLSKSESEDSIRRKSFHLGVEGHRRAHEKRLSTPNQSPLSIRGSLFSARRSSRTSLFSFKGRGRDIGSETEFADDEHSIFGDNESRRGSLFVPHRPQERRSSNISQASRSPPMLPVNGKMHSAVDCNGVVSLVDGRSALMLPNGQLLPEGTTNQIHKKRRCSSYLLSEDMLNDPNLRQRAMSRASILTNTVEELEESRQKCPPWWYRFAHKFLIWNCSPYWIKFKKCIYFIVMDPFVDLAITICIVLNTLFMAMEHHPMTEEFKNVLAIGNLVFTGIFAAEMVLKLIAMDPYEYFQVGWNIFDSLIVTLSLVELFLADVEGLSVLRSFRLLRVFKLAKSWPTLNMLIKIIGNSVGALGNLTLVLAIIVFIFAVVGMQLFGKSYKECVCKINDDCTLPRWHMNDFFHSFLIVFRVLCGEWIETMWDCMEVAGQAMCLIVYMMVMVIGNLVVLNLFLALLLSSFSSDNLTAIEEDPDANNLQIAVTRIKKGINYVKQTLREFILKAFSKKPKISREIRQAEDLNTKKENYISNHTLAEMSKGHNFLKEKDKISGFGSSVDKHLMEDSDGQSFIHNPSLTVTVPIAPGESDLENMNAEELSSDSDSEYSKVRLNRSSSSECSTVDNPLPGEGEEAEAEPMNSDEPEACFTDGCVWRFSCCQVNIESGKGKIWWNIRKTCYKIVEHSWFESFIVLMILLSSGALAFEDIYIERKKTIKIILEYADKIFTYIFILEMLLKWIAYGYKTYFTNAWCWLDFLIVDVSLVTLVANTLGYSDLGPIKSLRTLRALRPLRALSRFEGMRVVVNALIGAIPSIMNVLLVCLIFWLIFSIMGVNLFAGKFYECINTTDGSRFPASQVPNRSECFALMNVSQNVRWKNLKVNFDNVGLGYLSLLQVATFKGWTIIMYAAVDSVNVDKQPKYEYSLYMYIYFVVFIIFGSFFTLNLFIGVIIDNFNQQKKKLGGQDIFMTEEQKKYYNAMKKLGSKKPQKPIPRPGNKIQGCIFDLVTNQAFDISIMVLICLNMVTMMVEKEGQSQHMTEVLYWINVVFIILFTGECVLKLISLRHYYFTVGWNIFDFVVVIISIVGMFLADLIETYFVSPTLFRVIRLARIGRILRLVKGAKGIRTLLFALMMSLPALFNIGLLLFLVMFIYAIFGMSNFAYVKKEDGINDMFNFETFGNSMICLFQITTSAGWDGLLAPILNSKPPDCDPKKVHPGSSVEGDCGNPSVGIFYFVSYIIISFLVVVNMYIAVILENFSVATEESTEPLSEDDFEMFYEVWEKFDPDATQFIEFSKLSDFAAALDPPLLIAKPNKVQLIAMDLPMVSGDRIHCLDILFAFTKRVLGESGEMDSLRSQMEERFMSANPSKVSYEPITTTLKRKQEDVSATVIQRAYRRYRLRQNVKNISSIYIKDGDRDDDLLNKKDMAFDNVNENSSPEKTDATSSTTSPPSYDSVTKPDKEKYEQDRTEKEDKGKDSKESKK

One assay concerns the target human Nav1.7 (Homo sapiens (Human), UniProt Q15858). The assay is described as follows: FLIPR or FLIPR TETRA sodium dye assay with KCl and test article pre-incubation. The assay is classed as cell-based. Conditions: read-out: Nav1.7 IC50 (μM) ± SEM.
On to `OCC(O)c1cccc(-c2ccc(Oc3ccc(C(F)(F)F)cc3)cc2)n1` (centres unmarked) [compound 3, 1-(6-(4-(4-(trifluoromethyl)phenoxy)phenyl)pyridin-2-yl)ethane-1,2-diol], for which the IC50 came out at 0.07 ± 0.01 µM. For the molecule `OC[C@@H](O)c1cccc(-c2ccc(Oc3ccc(C(F)(F)F)cc3)cc2)n1` [compound 4, (S)-1-(6-(4-(4-(trifluoromethyl)phenoxy)phenyl)pyridin-2-yl)ethane-1,2-diol], the IC50 was determined as 0.12 ± 0.02 µM.

Take `N#Cc1ccc(Oc2ccc(-c3cccc([C@H](O)CO)n3)cc2)cc1` [compound 6, (S)-4-(4-(6-(1,2-dihydroxyethyl)pyridin-2-yl)phenoxy)benzonitrile]: the IC50 turned out to be 0.27 ± 0.05 µM. As for `N#Cc1ccc(Oc2ccc(-c3cccc(C(O)CO)n3)cc2)cc1` (centres unmarked) [compound 8, 4-(4-(6-(1,2-dihydroxyethyl)pyridin-2-yl)phenoxy) benzonitrile], the IC50 amounted to 0.47 ± 0.09 µM.

Consider `N#Cc1ccc(Oc2ccc(-c3cccc(C(O)CO)n3)cc2)c(C(F)(F)F)c1` (centres unmarked) [compound 9, 4-(4-(6-(1,2-dihydroxyethyl)pyridin-2-yl)phenoxy)-3-(trifluoromethyl) benzonitrile], for which the IC50 is 0.5 ± 0.18 µM. For the molecule `N#Cc1ccc(Oc2ccc(-c3cccc([C@@H](O)CO)n3)cc2)c(C(F)(F)F)c1` [compound 11, (R)-4-(4-(6-(1,2-dihydroxyethyl)pyridin-2-yl)phenoxy)-3-(trifluoromethyl) benzonitrile], the IC50 stood at 0.82 ± 0.09 µM.

In the case of `N#Cc1cc(Oc2ccc(-c3cccc(C(O)CO)n3)cc2)ccc1C(F)(F)F` (centres unmarked) [compound 12, 5-(4-(6-(1,2-dihydroxyethyl)pyridin-2-yl)phenoxy)-2-(trifluoromethyl) benzonitrile], the concentration for half-maximal inhibition (IC50) amounted to 0.89 ± 0.02 µM. With `N#Cc1ccc(Oc2ccc(-c3cccc([C@@H](O)CO)n3)cc2)cc1` [compound 13, (R)-4-(4-(6-(1,2-dihydroxyethyl)pyridin-2-yl)phenoxy) benzonitrile], the IC50 was found to be 0.89 ± 0.08 µM.

Consider `N#Cc1cc(Oc2ccc(-c3cccc([C@@H](O)CO)n3)cc2)ccc1C(F)(F)F` [compound 14, (R)-5-(4-(6-(1,2-dihydroxyethyl)pyridin-2-yl)phenoxy)-2-(trifluoromethyl) benzonitrile], for which the IC50 came out at 1.3 ± 0.3 µM. With `N#Cc1ccc(Oc2ccc(-c3cccc([C@H](O)CO)n3)cc2)c(C(F)(F)F)c1` [compound 22, (S)-4-(4-(6-(1,2-dihydroxyethyl)pyridin-2-yl)phenoxy)-3-(trifluoromethyl) benzonitrile], the IC50 stood at 3.33 ± 0.2 µM. For `N#Cc1ccc(Oc2ccc(-c3cc([C@H](O)CO)cc(C(N)=O)n3)cc2)cc1C(F)(F)F` [compound 31, (S)-6-(4-(4-cyano-3-(trifluoromethyl)phenoxy)phenyl)-4-(1,2-dihydroxyethyl) picolinamide], the IC50 turned out to be 0.61 ± 0.1 µM. Turning to `N#Cc1ccc(Oc2ccc(-c3cc([C@H](O)CO)cc(C(N)=O)n3)cc2)c(C(F)(F)F)c1` [compound 35, (S)-6-(4-(4-cyano-2-(trifluoromethyl)phenoxy)phenyl)-4-(1,2-dihydroxyethyl) picolinamide], the IC50 was determined as 0.4 ± 0.07 µM. On to `N#Cc1ccc(Oc2ccc(-c3cc([C@@H](O)CO)cc(C(N)=O)n3)cc2)c(C(F)(F)F)c1` [compound 36, (R)-6-(4-(4-cyano-2-(trifluoromethyl)phenoxy)phenyl)-4-(1,2-dihydroxyethyl) picolinamide], for which the IC50 was found to be 0.22 ± 0.04 µM. With `N#CCCN(c1ccccc1)c1cc(C(N)=O)nc(-c2ccc(Oc3ccc(F)cc3)cc2)c1` [compound 44, 4-((2-cyanoethyl)(phenyl)amino)-6-(4-(4-fluorophenoxy)phenyl) picolinamide], the IC50 turned out to be 3.29 ± 1.17 µM. Consider `NC(=O)c1cc(NCc2ccncc2)cc(-c2ccc(Oc3ccc(F)cc3)cc2)n1` [compound 46, 6-(4-(4-fluorophenoxy)phenyl)-4-((pyridin-4-ylmethyl)amino) picolinamide], for which the IC50 came to 0.48 ± 0.07 µM.

Still in this assay, the particulars now being: recombinant human Nav1.7 in HEK293 cells; CoroNa Green sodium dye; veratridine + scorpion venom; read-out: Nav1.7 IC50 (μM) ± SEM.
Take `CC(C)NC(=O)N1CCN(c2cc(-c3ccc(Oc4ccc(F)cc4)cc3)nc([C@@H](O)CO)c2)CC1` [compound 7, (R)-4-(2-(1,2-dihydroxyethyl)-6-(4-(4-fluorophenoxy)phenyl)pyridin-4-yl)-N-isopropyl piperazine-1-carboxamide]: the IC50 turned out to be 0.32 ± 0.02 µM. Take `N#Cc1cc(C(F)(F)F)ccc1Oc1ccc(-c2cccc(C(O)CO)n2)cc1` (centres unmarked) [compound 10, 2-(4-(6-(1,2-dihydroxyethyl)pyridin-2-yl)phenoxy)-5-(trifluoromethyl) benzonitrile]: the IC50 amounted to 0.52 ± 0.11 µM.

Take `OCC(O)c1cccc(-c2ccc(Oc3ncc(C(F)(F)F)cc3Cl)cc2)n1` (centres unmarked) [compound 15, 1-(6-(4-((3-chloro-5-(trifluoromethyl)pyridin-2-yl)oxy)phenyl)pyridin-2-yl) ethane-1,2-diol]: the IC50 is 1.42 ± 0.24 µM. Same read-out and setting: the value for `OCC(O)c1cccc(-c2ccc(Oc3ccc(C(F)(F)F)cn3)cc2)n1` (centres unmarked) [compound 16, 1-(6-(4-((5-(trifluoromethyl)pyridin-2-yl)oxy)phenyl)pyridin-2-yl) ethane-1,2-diol] was 1.71 ± 0.24 µM. Take `Cc1ccc(Oc2ccc(-c3cccc(C(O)CO)n3)cc2)cn1` (centres unmarked) [compound 17, 1-(6-(4-((6-methylpyridin-3-yl)oxy)phenyl)pyridin-2-yl)ethane-1,2-diol]: the IC50 worked out at 2.77 ± 0.41 µM. With `CC(=O)c1ccc(Oc2ccc(-c3cccc(C(O)CO)n3)cc2)c(C(F)(F)F)c1` (centres unmarked) [compound 20, 1-(4-(4-(6-(1,2-dihydroxyethyl)pyridin-2-yl)phenoxy)-3-(trifluoromethyl)phenyl)ethanone], the IC50 came to 2.95 ± 0.76 µM. In the case of `OC[C@H](O)c1cc(N2CCNCC2)cc(-c2ccc(Oc3ccc(F)cc3)cc2)n1` [compound 21, (R)-1-(6-(4-(4-fluorophenoxy)phenyl)-4-(piperazin-1-yl)pyridin-2-yl)ethane-1,2-diol], the IC50 was 2.97 ± 0.91 µM. On to `OC[C@H](O)c1cccc(-c2ccc(Oc3ccc(C(F)(F)F)cn3)cc2)n1` [compound 23, (R)-1-(6-(4-((5-(trifluoromethyl)pyridin-2-yl)oxy)phenyl)pyridin-2-yl)ethane-1,2-diol], for which the IC50 came to 4.89 ± 2.48 µM. Consider `OC[C@@H](O)c1cccc(-c2ccc(Oc3ccc(C(F)(F)F)cn3)cc2)n1` [compound 24, (S)-1-(6-(4-((5-(trifluoromethyl)pyridin-2-yl)oxy)phenyl)pyridin-2-yl)ethane-1,2-diol], for which the half-inhibitory concentration (IC50) amounted to 6.49 ± 2.94 µM. For `Cc1ccc(Oc2ccc(-c3cccc(C(O)CO)n3)cc2)cn1` (centres unmarked) [compound 27, 1-(6-(4-((6-methylpyridin-3-yl)oxy)phenyl)pyridin-2-yl)ethane-1,2-diol], the IC50 is above 20 µM. In the case of `OCC(O)c1cccc(-c2ccc(Oc3ncccc3C(F)(F)F)cc2)n1` (centres unmarked) [compound 29, 1-(6-(4-((3-(trifluoromethyl)pyridin-2-yl)oxy)phenyl)pyridin-2-yl) ethane-1,2-diol], the IC50 worked out at 2.65 ± 0.37 µM.

For the molecule `NC(=O)c1ccc(Oc2ccc(-c3cc([C@H](O)CO)cc(C(N)=O)n3)cc2)c(C(F)(F)F)c1` [compound 32, (S)-6-(4-(4-carbamoyl-2-(trifluoromethyl)phenoxy)phenyl)-4-(1,2-dihydroxyethyl) picolinamide], the IC50 was above 20 µM. For the molecule `N#Cc1cc(Oc2ccc(-c3cc([C@H](O)CO)cc(C(N)=O)n3)cc2)ccc1C(F)(F)F` [compound 33, (S)-6-(4-(3-cyano-4-(trifluoromethyl)phenoxy)phenyl)-4-(1,2-dihydroxyethyl) picolinamide], the IC50 came to 0.5 ± 0.07 µM.

Turning to `N#Cc1cc(Oc2ccc(-c3cc([C@@H](O)CO)cc(C(N)=O)n3)cc2)ccc1C(F)(F)F` [compound 34, (R)-6-(4-(3-cyano-4-(trifluoromethyl)phenoxy)phenyl)-4-(1,2-dihydroxyethyl) picolinamide], the IC50 was found to be 0.38 ± 0.08 µM. As to `N#Cc1ccc(Oc2ccc(-c3cc([C@H](O)CO)cc(C(N)=O)n3)cc2)cc1` [compound 37, (S)-6-(4-(4-cyanophenoxy)phenyl)-4-(1,2-dihydroxyethyl) picolinamide], the IC50 worked out at 0.44 ± 0.1 µM.

Turning to `N#Cc1ccc(Oc2ccc(-c3cc([C@@H](O)CO)cc(C(N)=O)n3)cc2)cc1` [compound 38, (R)-6-(4-(4-cyanophenoxy)phenyl)-4-(1,2-dihydroxyethyl) picolinamide], the IC50 was determined as 0.35 ± 0.07 µM. Still for that read-out and setting: the value for `NC(=O)c1cc([C@H](O)CO)cc(-c2ccc(Oc3cc(Cl)ccc3F)cc2)n1` [compound 39, (S)-6-(4-(5-chloro-2-fluorophenoxy)phenyl)-4-(1,2-dihydroxyethyl) picolinamide] was 0.13 ± 0.03 µM; that for `NC(=O)c1cc([C@H](O)CO)cc(-c2ccc(Oc3ccc(F)cc3)cc2)n1` [compound 41, (S)-4-(1,2-dihydroxyethyl)-6-(4-(4-fluorophenoxy)phenyl)picolinamide] was 0.24 ± 0.04 µM; that for `O=C(NCCN1CCCCC1)c1cc([C@H](O)CO)cc(-c2ccc(Oc3ccc(F)cc3)cc2)n1` [compound 42, (S)-4-(1,2-dihydroxyethyl)-6-(4-(4-fluorophenoxy)phenyl)-N-(2-(piperidin-1-yl)ethyl) picolinamide] was 1.25 ± 0.15 µM. As to `CN(c1ccccc1)c1cc(C(N)=O)nc(-c2ccc(Oc3ccc(F)cc3)cc2)c1` [compound 43, 6-(4-(4-fluorophenoxy)phenyl)-4-(methyl (phenyl)amino) picolinamide], the IC50 was found to be 0.93 ± 0.17 µM. For `NC(=O)c1cc(NCc2cccnc2)cc(-c2ccc(Oc3ccc(F)cc3)cc2)n1` [compound 45, 6-(4-(4-fluorophenoxy)phenyl)-4-((pyridin-3-ylmethyl)amino) picolinamide], the IC50 amounted to 0.15 ± 0.01 µM.

Turning to `NC(=O)c1cc(NCc2ccccn2)cc(-c2ccc(Oc3ccc(F)cc3)cc2)n1` [compound 47, 6-(4-(4-fluorophenoxy)phenyl)-4-((pyridin-2-ylmethyl)amino) picolinamide], the IC50 came out at 0.22 ± 0.06 µM. For the molecule `NC(=O)c1cc(NCCN2CCS(=O)(=O)CC2)cc(-c2ccc(Oc3ccc(F)cc3)cc2)n1` [compound 48, 4-((2-(1,1-dioxidothiomorpholino)ethyl)amino)-6-(4-(4-fluorophenoxy)phenyl) picolinamide], the IC50 is 0.09 ± 0.06 µM.

The IC50 is the concentration that inhibits the measured activity by half.
